Test results reported in patent publication US10597388B2, “Pyridazinone herbicides” (FMC CORPORATION, priority 2014, dated 2020).

Assays:
Assay in all cases: Test D controlled growth environment herbicide test, pre- and postemergence
Type in all cases: in vivo
[1] = test system: barley, winter (winter barley, Hordeum vulgare)
Method in brief: (§1)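 Rating is visual, 0–100 scale (100 = complete control), made against untreated plants 14–21 d after treatment in controlled growth conditions. Postemergence sprays went onto 1- to 4-leaf plants in peat medium; preemergence sprays onto silt loam after sowing; formulation included a surfactant.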

[2] = test system: barley, spring (spring barley, Hordeum vulgare)
Method in brief: as §1

[3] = test system: wheat, winter (winter wheat, Triticum aestivum)
Method in brief: as §1

[4] = test system: field poppy (Papaver rhoeas)
Method in brief: as §1

[5] = test system: foxtail, green (green foxtail, Setaria viridis)
Method in brief: as §1

[6] = test system: wheat, spring (spring wheat, Triticum aestivum)
Method in brief: as §1

[7] = test system: bromegrass, downy (downy bromegrass, Bromus tectorum)
Method in brief: as §1

[8] = test system: blackgrass (Alopecurus myosuroides)
Method in brief: as §1

[9] = test system: chickweed (common chickweed, Stellaria media)
Method in brief: as §1

[10] = test system: lambsquarters (Chenopodium album)
Method in brief: as §1

[11] = test system: deadnettle (henbit deadnettle, Lamium amplexicaule)
Method in brief: as §1

[12] = test system: ryegrass, Italian (Italian ryegrass, Lolium multiflorum)
Method in brief: as §1

[13] = test system: chamomile (scentless chamomile, Matricaria inodora)
Method in brief: as §1

[14] = Postemergence, 31 g ai/ha, scale 0 to 100 (0 no effect, 100 complete control)
[15] = Postemergence, 125 g ai/ha, visual rating on scale 0 (no effect) to 100 (complete control), 14 to 21 d
[16] = Postemergence, 250 g ai/ha, scale 0 to 100 (0 no effect, 100 complete control)
[17] = Preemergence, 62 g ai/ha, scale 0 to 100 (0 no effect, 100 complete control)
[18] = Preemergence, 125 g ai/ha, scale 0 to 100 (0 no effect, 100 complete control)
[19] = Preemergence, 250 g ai/ha, scale 0 to 100 (0 no effect, 100 complete control)
[20] = postemergence, 62 g ai/ha, scale 0 to 100, 0 no effect, 100 complete control

`Cc1ccc2ccccc2c1-c1c(O)c(C)nn(C)c1=O` [Compound 59] was tested, and the “Barley, Winter plant response rating” value [1, 14] was 20, the “Plant response rating, Barley, Winter” value [1, 15] was 45 and the “Plant response rating, Barley, Winter” value [1, 16] was 60. For the same compound, the “Plant response rating (scale of 0 to 100), Barley, Winter” value ([1]; Preemergence, 31 g ai/ha) was 15, the “Plant response rating, Barley, Winter” value [1, 17] was 25 and the “Plant response rating, Barley, Winter” value [1, 18] was 40. For the same compound, the “Plant response rating, Barley, Winter” value [1, 19] was 45, the “Plant response rating, Barley, Winter” value [1, 20] was 30 and the “Barley, Spring plant response rating” value [2, 14] was 25. For the same compound, the “Plant response rating, Barley, Spring” value [2, 15] was 40, the “Plant response rating, Barley, Spring” value [2, 16] was 60 and the “Plant response rating (scale of 0 to 100), Barley, Spring” value ([2]; Preemergence, 31 g ai/ha) was 5. The “Plant response rating, Barley, Spring” value [2, 17] was 25, the “Plant response rating, Barley, Spring” value [2, 18] was 40 and the “Plant response rating, Barley, Spring” value [2, 19] was 60. For the same compound, the “Plant response rating, Barley, Spring” value [2, 20] was 30, the “Wheat, Winter plant response rating” value [3, 14] was 35 and the “Plant response rating, Wheat, Winter” value [3, 15] was 55. For the same compound, the “Plant response rating, Wheat, Winter” value [3, 16] was 80, the “Plant response rating (scale of 0 to 100), Wheat, Winter” value ([3]; Preemergence, 31 g ai/ha) was 10 and the “Plant response rating, Wheat, Winter” value [3, 17] was 35. The “Plant response rating, Wheat, Winter” value [3, 18] was 70, the “Plant response rating, Wheat, Winter” value [3, 19] was 80 and the “Plant response rating, Wheat, Winter” value [3, 20] was 40. For the same compound, the “Field Poppy plant response rating” value [4, 14] was 70, the “Plant response rating, Field Poppy” value [4, 15] was 95 and the “Plant response rating, Field Poppy” value [4, 16] was 100. The “Plant response rating (scale of 0 to 100), Field Poppy” value ([4]; Preemergence, 31 g ai/ha) was 100, the “Plant response rating, Field Poppy” value [4, 17] was 100 and the “Plant response rating, Field Poppy” value [4, 18] was 100. For the same compound, the “Plant response rating, Field Poppy” value [4, 19] was 100, the “Plant response rating, Field Poppy” value [4, 20] was 75 and the “Foxtail, Green plant response rating” value [5, 14] was 65. For the same compound, the “Plant response rating, Foxtail, Green” value [5, 15] was 75, the “Plant response rating, Foxtail, Green” value [5, 16] was 85 and the “Plant response rating (scale of 0 to 100), Foxtail, Green” value ([5]; Preemergence, 31 g ai/ha) was 55. For the same compound, the “Plant response rating, Foxtail, Green” value [5, 17] was 75, the “Plant response rating, Foxtail, Green” value [5, 18] was 85 and the “Plant response rating, Foxtail, Green” value [5, 19] was 100. The “Plant response rating, Foxtail, Green” value [5, 20] was 70, the “Wheat, Spring plant response rating” value [6, 14] was 40 and the “Plant response rating, Wheat, Spring” value [6, 15] was 70. The “Plant response rating, Wheat, Spring” value [6, 16] was 80, the “Plant response rating (scale of 0 to 100), Wheat, Spring” value ([6]; Preemergence, 31 g ai/ha) was 35 and the “Plant response rating, Wheat, Spring” value [6, 17] was 65. The “Plant response rating, Wheat, Spring” value [6, 18] was 80, the “Plant response rating, Wheat, Spring” value [6, 19] was 85 and the “Plant response rating, Wheat, Spring” value [6, 20] was 45. For the same compound, the “Bromegrass, Downy plant response rating” value [7, 14] was 35, the “Plant response rating, Bromegrass, Downy” value [7, 15] was 70 and the “Plant response rating, Bromegrass, Downy” value [7, 16] was 85. For the same compound, the “Plant response rating (scale of 0 to 100), Bromegrass, Downy” value ([7]; Preemergence, 31 g ai/ha) was 75, the “Plant response rating, Bromegrass, Downy” value [7, 17] was 85 and the “Plant response rating, Bromegrass, Downy” value [7, 18] was 90. For the same compound, the “Plant response rating, Bromegrass, Downy” value [7, 19] was 95, the “Plant response rating, Bromegrass, Downy” value [7, 20] was 70 and the “Blackgrass plant response rating” value [8, 14] was 70. For the same compound, the “Plant response rating, Blackgrass” value [8, 15] was 85, the “Plant response rating, Blackgrass” value [8, 16] was 85 and the “Plant response rating (scale of 0 to 100), Blackgrass” value ([8]; Preemergence, 31 g ai/ha) was 85. For the same compound, the “Plant response rating, Blackgrass” value [8, 17] was 90, the “Plant response rating, Blackgrass” value [8, 18] was 95 and the “Plant response rating, Blackgrass” value [8, 19] was 100. The “Plant response rating, Blackgrass” value [8, 20] was 80, the “Chickweed plant response rating” value [9, 14] was 100 and the “Plant response rating, Chickweed” value [9, 15] was 100. For the same compound, the “Plant response rating, Chickweed” value [9, 16] was 100, the “Plant response rating (scale of 0 to 100), Chickweed” value ([9]; Preemergence, 31 g ai/ha) was 100 and the “Plant response rating, Chickweed” value [9, 17] was 100. For the same compound, the “Plant response rating, Chickweed” value [9, 18] was 100, the “Plant response rating, Chickweed” value [9, 19] was 100 and the “Plant response rating, Chickweed” value [9, 20] was 98. For the same compound, the “Lambsquarters plant response rating” value [10, 14] was 90, the “Plant response rating, Lambsquarters” value [10, 15] was 90 and the “Plant response rating, Lambsquarters” value [10, 16] was 95. For the same compound, the “Plant response rating (scale of 0 to 100), Lambsquarters” value ([10]; Preemergence, 31 g ai/ha) was 95, the “Plant response rating, Lambsquarters” value [10, 17] was 100 and the “Plant response rating, Lambsquarters” value [10, 18] was 100. For the same compound, the “Plant response rating, Lambsquarters” value [10, 19] was 100, the “Plant response rating, Lambsquarters” value [10, 20] was 85 and the “Deadnettle plant response rating” value [11, 14] was 80. The “Plant response rating, Deadnettle” value [11, 15] was 90, the “Plant response rating, Deadnettle” value [11, 16] was 100 and the “Plant response rating (scale of 0 to 100), Deadnettle” value ([11]; Preemergence, 31 g ai/ha) was 50. For the same compound, the “Plant response rating, Deadnettle” value [11, 17] was 90, the “Plant response rating, Deadnettle” value [11, 18] was 90 and the “Plant response rating, Deadnettle” value [11, 19] was 100. The “Plant response rating, Deadnettle” value [11, 20] was 80, the “Ryegrass, Italian plant response rating” value [12, 14] was 80 and the “Plant response rating, Ryegrass, Italian” value [12, 15] was 90. The “Plant response rating, Ryegrass, Italian” value [12, 16] was 90, the “Plant response rating (scale of 0 to 100), Ryegrass, Italian” value ([12]; Preemergence, 31 g ai/ha) was 100 and the “Plant response rating, Ryegrass, Italian” value [12, 17] was 100. For the same compound, the “Plant response rating, Ryegrass, Italian” value [12, 18] was 100, the “Plant response rating, Ryegrass, Italian” value [12, 19] was 100 and the “Plant response rating, Ryegrass, Italian” value [12, 20] was 90. The “Chamomile plant response rating” value [13, 14] was 80, the “Plant response rating, Chamomile” value [13, 15] was 85 and the “Plant response rating, Chamomile” value [13, 16] was 100. For the same compound, the “Plant response rating (scale of 0 to 100), Chamomile” value ([13]; Preemergence, 31 g ai/ha) was 100, the “Plant response rating, Chamomile” value [13, 17] was 95 and the “Plant response rating, Chamomile” value [13, 18] was 100. The “Plant response rating, Chamomile” value [13, 19] was 100 and the “Plant response rating, Chamomile” value [13, 20] was 80.
